Source: patent US7183108B1, “Selection and uses of lactic acid bacteria strains modulating non-specific immunity” (Compagnie Gervais Danone, priority 1998, dated 2007)

What was measured:
Format in all cases: cell-based, human
[1] = system: HT-29 cells; assay: Production of TNF-α and IL-1β by HT-29 cells (ELISA of culture supernatants); details: HT-29 preactivated with CYTOMIX, with total extract of L. casei; L-NAME 1 mM or PDTC 10 pM (FIG. 3)
Procedure: (§1) Each of the 2 lines was seeded at 2×10^6 cells/well in 24-well plates, in DMEM medium supplemented with 5% of SVF, with 100 U/ml of penicillin, with 100 μg/ml of streptomycin and with 2 mM of L-glutamine. The cells are then incubated for 24 hours in the presence of CYTOMIX, and then for a further 24 hours in the presence of the total extracts of L. casei. For certain experiments, L-NAME (1 mM) or an inhibitor of the NFκB transduction pathway (PDTC: 10 pM) are added at the same time as the bacterial extracts. The culture supernatants are then recovered and the cytokine concentration thereof is determined by ELISA.

[2] = system: Caco-2 cells; assay: Production of TNF-α and IL-1β by Caco-2 cells (ELISA of culture supernatants); details: Caco-2 preactivated with CYTOMIX, with total extract of L. casei; L-NAME 1 mM or PDTC 10 pM (FIG. 3)
Procedure: as §1

[3] = system: HT-29 cells; assay: Production of nitric oxide (nitrite, GRIESS method) by HT-29 colon epithelial cell line; details: HT-29, L-NAME 1 mM, in the presence or absence of total extract of L. casei (3% v/v) (FIG. 2)
Procedure: (§2) Each of the 2 lines was seeded at 2×10^5 cells/well in 96-well plates, in DMEM medium supplemented with 5% of SVF, with 100 U/ml of penicillin, with 100 μg/ml of streptomycin and with 2 mM of L-glutamine.
(§3) The cells are pre-incubated for 24 hours at 37° C., 5% CO2, in the presence of CYTOMIX (IL-1β: 10 ng/ml, TNF-α: 25 ng/ml and γ-IFN: 10^3 U/ml mixture). The cells are then incubated for a further 24 hours in the presence or absence of increasing amounts of total extracts of L. casei (in % vol/vol).
(§4) After incubation, the culture supernatants are recovered and frozen, before determining the nitrite concentration. For certain experiments, L-NAME (1 mM), which is an analogue of L-arginine and constitutes a competitive inhibitor specific for NO-synthases, is added at the same time as the extracts of L. casei.
(§5) The amount of NO produced is evaluated by assaying, in the culture supernatants, the stable derivatives of this radical after reaction thereof in aqueous medium: the nitrites and nitrates. The nitrates are, initially, reduced to nitrites with bacteria expressing nitrate reductase, and the nitrites are then assayed using the GRIESS method. […] The absorbances are then determined at 540 nm using a MULTISCAN MCC340 reader (LABSYSTEM).

[4] = system: Caco-2 cells; assay: Production of nitric oxide (nitrite, GRIESS method) by Caco-2 colon epithelial cell line; details: Caco-2, L-NAME 1 mM, in the presence or absence of total extract of L. casei (3% v/v) (FIG. 2)
Procedure: as §2, §3, §4, §5

S=C(S)N1CCCC1 [PDTC]
inhibited: effect of inhibitor on production of TNF-α [1] | effect of inhibitor on production of TNF-α [2]

COC(=O)[C@@H](N)CCCNC(=N)N[N+](=O)[O-] [L-NAME]
inhibited: effect of inhibitor on production of TNF-α [1] | effect of inhibitor on production of TNF-α [2] | effect on CYTOMIX-induced production of NO [3] | effect on CYTOMIX-induced production of NO [4]
